Experimental findings from patent EP0612730A1, “O-aryl ethers of morphinans” (F. HOFFMANN-LA ROCHE AG, priority 1993, dated 1994) are described below.

Each structure is given as a SMILES string. Structures can show the parent of a compound that is named as a salt.

The first test relates to NMDA receptor. The test is described as follows: NMDA-induced convulsions in mice (NMDA-induced anticonvulsant test). Format: in vivo. The note with it: NMDA 175 mg/kg i.p. 30 min after i.p. test compound (60 min after oral), percent protection = 100 (E-C)/(10-C), dose and route of test compound not given. From the text:
As indicated above, the compounds of formula I are active as non-competitive NMDA receptor antagonists and are therefore, useful as neuroprotecting agents, for example, in the treatment of injury to central neurons associated with ischemia, hypoxia, hypoglycemia, epilepsy, Huntington's disease or Alzheimer's disease.
1. NMDA-Induced convulsions in mice
Male mice 45-54 days old and weighing 18-30 g are food-deprived for 24 hrs and then assigned in groups of 10 to various treatment conditions. In general, the method of Lehmann et al. described in J. Pharmacol. Exp. Ther. 240, 1987, 737-746, is used. Mice are administered a test compound intraperitoneally and are injected with NMDA (175 mg/kg i.p.) 30 minutes later. If any test compound is administered orally, the NMDA is injected 60 minutes later. NMDA is dissolved in 0.9% saline. Test compounds are likewise dissolved in 0.9% saline or, when necessary, suspended in 5% gum acacia. All injections are made in a volume of 0.2 ml/20 g body weight. […] Results are represented as the number of mice protected at each dose level of a test compound; this gives an indication of the degree of protection at each dose and indicates whether there was a dose level at which complete protection occurred. A formula is used which adjusts for the number of mice "protected" in the control group, since the dose of NMDA used induces convulsions in less than 100 percent of the mice in the control group. The formula used is: percent protection = 100 (E-C)/(10-C), where E is the number of mice protected at the dose of the test compound, C is the number of mice not convulsing in the vehicle control group, and 10 is the number of mice per group. A given dose level of a compound is regarded as being active if this percent protection score is equal to or greater than 50 percent.
As for `CC(C)(CO)N1CC[C@]23CCCC[C@H]2[C@H]1Cc1ccc(Oc2ccccn2)cc13` [Example 18, (+)-β,β-dimethyl-3-(2-pyridinyloxy)morphinan-17-ethanol], the “% mice protected” value came to 50%. Turning to `CN1CC[C@@]23CCCC[C@@H]2[C@@H]1Cc1ccc(Oc2nccs2)cc13` [Fumarate (the 1st table, row 4)], the “% mice protected” value is reported as 86%. Same read-out and setting: with `CN1CC[C@@]23CCCC[C@@H]2[C@@H]1Cc1ccc(Oc2cccc(Br)n2)cc13` [Fumarate (the 1st table, row 6)] the figure was 67%; with `CN1CC[C@@]23CCCC[C@@H]2[C@@H]1Cc1ccc(Oc2ccccn2)cc13` [Oxalate], 86%.

The subject of another test is cell suspensions prepared from embryonic rat cortices. Kind of test: Acute glutamate neurotoxicity in cortical cell cultures (lactate dehydrogenase release). The note with it: embryonic rat cortical cultures 8-12 days in vitro, glutamate for 5 to 30 min at room temperature, LDH in supernatant after overnight at 37°C. Format: cell-based. The protocol: 2. Acute glutamate neurotoxicity
Single cell suspensions were prepared from embryonic rat cortices by digestion with dispase (2.4 U/ml) and subsequent trituration with fire polished Pasteur pipettes. The cells were then plated on poly-D-lysine coated microtiter plates (96 well/plate, 10⁵ cells/well) in a total volume of 100 µl essential medium supplemented with 10% horse serum and penicillin/streptomycin . Five days later, non-neuronal cell division was halted by exposure to […] combined with a 50% exchange of culture medium. The cultures were used for neurotoxicity assays from 8-12 days in vitro. Acute glutamate toxicity was performed as described in J. Koh et al. in Neurosci. 8, 1988, 185-196, in […] of a control salt solution [CSS: 120 mM NaCl, 5.4 mM KCl, 0.8 mm MgCl₂, 1.8 mM CaCl₂, 25 mM Tris HCl (pH 7.4 at 25°C) and 15 mM glycose] with […] glutamate for 5 to 30 min at room temperature with or without addition of substances to be tested.After washing, the cultures were maintained in 100 µl CSS overnight at 37°C. For quantitation of neurodegeneration, lactate dehydrogenase was measured in the cell culture supernatant as described by J.G. Klingman et al. in Neurosci. Meth. 31, 1990, 47-51. […] From dose response curves, IC₅₀ values were calculated.
On to `CN1CC[C@@]23CCCC[C@@H]2[C@@H]1Cc1ccc(Oc2ncccc2N)cc13` [2 HCl], for which the IC50 is 14 µM. Same read-out and setting: with `CN1CC[C@]23CCCC[C@H]2[C@H]1Cc1ccc(Oc2ccccn2)cc13` [Example 2, (+)-3-(2-pyridyloxy)-N-methyl-morphinan] the figure was 4 µM. Still for that read-out and setting: with `CC(C)(CO)N1CC[C@]23CCCC[C@H]2[C@H]1Cc1ccc(Oc2ccccn2)cc13` [Example 18, (+)-β,β-dimethyl-3-(2-pyridinyloxy)morphinan-17-ethanol] the figure was 14 µM. The same measure, in the same setting: with `Cc1cccc(Oc2ccc3c(c2)[C@@]24CCCC[C@H]2[C@@H](C3)NCC4)n1` [Example 22, (+)-3-[6-methyl-(2-pyridinyl)oxy] morphinan] the figure was 1 to 2 µM.

In turn, `CN1CC[C@@]23CCCC[C@@H]2[C@@H]1Cc1ccc(Oc2cccc(Br)n2)cc13` [Fumarate (the 3rd table, row 5)] had an IC50 of 1 to 2 µM.

With `CN1CC[C@@]23CCCC[C@@H]2[C@@H]1Cc1ccc(Oc2nccs2)cc13` [Fumarate (the 3rd table, row 10)], the half-inhibitory concentration (IC50) stood at 5 µM. Same read-out and setting: with `CN1CC[C@@]23CCCC[C@@H]2[C@@H]1Cc1ccc(Oc2cccnc2)cc13` [Fumarate] the figure was 6.4 µM; with `CN1CC[C@@]23CCCC[C@@H]2[C@@H]1Cc1ccc(Oc2cccs2)cc13` [Fumarate], 13 µM. `CN1CC[C@@]23CCCC[C@@H]2[C@@H]1Cc1ccc(Oc2ncccc2[N+](=O)[O-])cc13` [Fumarate] registered an IC50 of 5 µM. `CN1CC[C@@]23CCCC[C@@H]2[C@@H]1Cc1ccc(Oc2ncccn2)cc13` [Fumarate]: the IC50 is 4 µM. Compound `Cc1cccc(Oc2ccc3c(c2)[C@]24CCCC[C@@H]2[C@H](C3)N(C)CC4)n1` [Fumarate] came in with an IC50 of 0.2 µM. On the same count and under the same terms, with `O=[N+]([O-])c1cccnc1Oc1ccc2c(c1)[C@]13CCCC[C@@H]1[C@H](C2)NCC3` [HCl] the figure was 0.5 µM. Still for that read-out and setting: with `c1ccc(Oc2ccc3c(c2)[C@]24CCCC[C@@H]2[C@H](C3)NCC4)cc1` [HCl] the figure was 1 µM; with `c1ccc(Oc2ccc3c(c2)[C@]24CCCC[C@@H]2[C@H](C3)NCC4)nc1` [Maleate], 6 µM. The same measure, in the same setting: with `c1csc(Oc2ccc3c(c2)[C@]24CCCC[C@@H]2[C@H](C3)NCC4)n1` [Maleate] the figure was 8 µM; with `CN1CC[C@@]23CCCC[C@@H]2[C@@H]1Cc1ccc(Oc2ccccc2)cc13` [Oxalate], 6 µM.
